In patent US20250136594A1 (Tango Therapeutics, Inc., priority 2022, published 2025):
Like-named read-outs stand apart in the source and are kept apart here.

What was measured:
[1] = test system: SDMA in HAP1 MTAP-intact cell line (PRMT5 inhibition); experiment: SDMA in-cell western assay, HAP1 MTAP-intact cell line
[2] = test system: HAP1 MTAP-deleted cell line; experiment: Viability assay, HAP1 MTAP-deleted cell line; format: cell-based; conditions: viability assay, HAP1 MTAP-deleted cell line, read-out: Hap1 MTAP deleted viability IC50
[3] = test system: SDMA in HAP1 MTAP-deleted (MTAP-null) cell line (PRMT5 inhibition); experiment: SDMA in-cell western assay, HAP1 MTAP-deleted cell line; conditions: for Hap1 MTAP intact/deleted ratio: ratio of SDMA IC50 in HAP1 MTAP-intact to HAP1 MTAP-deleted cell line
[4] = Homo sapiens, HAP1, read-out: Hap1 MTAP intact IC50
[5] = Homo sapiens, HAP1, read-out: Hap1 MTAP deleted IC50
[6] = Homo sapiens, HAP1, read-out: Hap1 MTAP deleted IC90

| SMILES | IC50 [1, 4] [nM] | IC50 ([2]; Homo sapiens) [nM] | IC50 [3, 5] [nM] | IC90 [3, 6] [nM] | Hap1 MTAP intact/deleted ratio [3] | IC50 ([1]; read-out: Hap1 MTAP intact IC50, SDMA in-cell western, HAP1 MTAP-intact cell line) [nM] | IC50 [2] [nM] | IC50 ([3]; read-out: Hap1 MTAP deleted IC50, SDMA in-cell western, HAP1 MTAP-deleted cell line) [nM] | IC90 ([3]; read-out: Hap1 MTAP deleted IC90, SDMA in-cell western, HAP1 MTAP-deleted cell line) [nM] |
| --- | --- | --- | --- | --- | --- | --- | --- | --- | --- |
| CC(C)N(Cc1ccccc1C(F)(F)F)C(=O)C(=O)Nc1cnc(N)c2cn[nH]c12 [Compound 73, N-(4-amino-1H-pyrazolo[4,3-c]pyridin-7-yl)-N′-isopropyl-N′-[[2-(trifluoromethyl)phenyl]methyl]oxamide] | 5 to 50 | < 100 | < 5 | < 75 | B (IC50 ratio greater than or equal to 15 fold but lower than 30 fold) |  |  |  |  |
| CCN(Cc1cccc2ccccc12)C(=O)C(=O)Nc1cnc(N)c2cn[nH]c12 [Compound 176, N-(4-amino-1H-pyrazolo[4,3-c]pyridin-7-yl)-N′-ethyl-N′-(1-naphthylmethyl)oxamide] | > 50 | 100 to 1000 | 5 to 50 | > 125 | A (IC50 ratio greater than or equal to 30 fold) |  |  |  |  |
| Cc1cccnc1CN(C(=O)C(=O)Nc1cnc(N)c2cn[nH]c12)C(C)C(C)C (single isomer, unassigned) [Compound 106] | 5 to 50 | < 100 | < 5 | < 75 | C (IC50 ratio of less than 15 fold) |  |  |  |  |
| C[C@@H](c1ccc(C(F)(F)C(F)(F)F)cc1)N(C)C(=O)C(=O)Nc1cnc(N)c2c1cnn2C [Compound 83, N-(7-Amino-1-methyl-pyrazolo[3,4-c]pyridin-4-yl)-N′-methyl-N′—[(1S)-1-[4-(1,1,2,2,2-pentafluoroethyl)phenyl]ethyl]oxamide] | > 50 | 100 to 1000 | 5 to 50 | > 125 | A (IC50 ratio greater than or equal to 30 fold) |  |  |  |  |
| CCN(C(=O)C(=O)Nc1cnc(N)c2cn[nH]c12)[C@@H](C)c1ccc(C(F)(F)C(F)(F)F)cc1C [Compound 69, (S)—N^1-(4-amino-1H-pyrazolo[4,3-c]pyridin-7-yl)-N^2-ethyl-N^2-(1-(2-methyl-4-(perfluoroethyl)phenyl)ethyl)oxalamide] | > 50 | < 100 | 5 to 50 | < 75 | B (IC50 ratio greater than or equal to 15 fold but lower than 30 fold) |  |  |  |  |
| Cc1cccnc1CN(C(=O)C(=O)Nc1cnc(N)c2cn[nH]c12)C(C)C(C)C (single isomer, unassigned) [Compound 171] |  |  |  |  | C (IC50 ratio of less than 15 fold) | 5 to 50 | < 100 | < 5 | < 75 |
| O=C(Nc1ccn2ccnc2c1)C(=O)N(Cc1ccc(C(F)(F)F)cn1)[C@@H]1CCC[C@H]1OC(F)F (racemic) [Compound 41, N1-((1R,2R)-2-(difluoromethoxy)cyclopentyl)-N^2-(imidazo[1,2-a]pyridin-7-yl)-N^1-((5-(trifluoromethyl)pyridin-2-yl)methyl)oxalamide] | > 50 | 100 to 1000 | 5 to 50 | > 125 | A (IC50 ratio greater than or equal to 30 fold) |  |  |  |  |
| Cc1cc(C(F)(F)F)cnc1CN(Cc1ncccn1)C(=O)C(=O)Nc1cnc(N)c2cn[nH]c12 [Compound 86, N-(4-amino-1H-pyrazolo[4,3-c]pyridin-7-yl)-N′-[[3-methyl-5-(trifluoromethyl)-2-pyridyl]methyl]-N′-(pyrimidin-2-ylmethyl)oxamide] | 5 to 50 | < 100 | < 5 | < 75 | C (IC50 ratio of less than 15 fold) |  |  |  |  |
| Nc1ncc(NC(=O)C(=O)N(Cc2ccc(C(F)(F)F)cn2)Cc2ncccn2)c2[nH]ncc12 [Compound 25, N-(4-amino-1H-pyrazolo[4,3-c]pyridin-7-yl)-N′-(pyrimidin-2-ylmethyl)-N′-[[5-(trifluoromethyl)-2-pyridyl]methyl]oxamide] | 5 to 50 | < 100 | < 5 | < 75 | B (IC50 ratio greater than or equal to 15 fold but lower than 30 fold) |  |  |  |  |
| C[C@@H](c1ccc(C(F)(F)F)cn1)N(C)C(=O)C(=O)Nc1cnc(N)c2cn[nH]c12 [Compound 127, N-(4-amino-1H-pyrazolo[4,3-c]pyridin-7-yl)-N′-methyl-N′—[(1S)-1-[5-(trifluoromethyl)-2-pyridyl]ethyl]oxamide] | > 50 | 100 to 1000 | 5 to 50 | > 125 | A (IC50 ratio greater than or equal to 30 fold) |  |  |  |  |
| CCC(C)CN(Cc1ccccn1)C(=O)C(=O)Nc1cnc(N)c2cn[nH]c12 (centres unmarked) [Compound 152, N-(4-amino-1H-pyrazolo[4,3-c]pyridin-7-yl)-N′-(2-methylbutyl)-N′-(2-pyridylmethyl)oxamide] | > 50 | < 100 | < 5 | < 75 | A (IC50 ratio greater than or equal to 30 fold) |  |  |  |  |
| Cc1cc(F)cnc1CN(Cc1ccc(F)cn1)C(=O)C(=O)Nc1cnc(N)c2cn[nH]c12 [Compound 88, N-(4-amino-1H-pyrazolo[4,3-c]pyridin-7-yl)-N′-[(5-fluoro-3-methyl-2-pyridyl)methyl]-N′-[(5-fluoro-2-pyridyl)methyl]oxamide] | 5 to 50 | < 100 | < 5 | < 75 | B (IC50 ratio greater than or equal to 15 fold but lower than 30 fold) |  |  |  |  |
| CC1CCC(N(Cc2ccc(C(F)(F)F)cn2)C(=O)C(=O)Nc2cncc3cn[nH]c23)c2ccccc21 (centres unmarked) [Compound 17, N′-(4-methyltetralin-1-yl)-N-(1H-pyrazolo[4,3-c]pyridin-7-yl)-N′-[[5-(trifluoromethyl)-2-pyridyl]methyl]oxamide] | > 50 | < 100 | 5 to 50 | > 125 | C (IC50 ratio of less than 15 fold) |  |  |  |  |
| Nc1ncc(NC(=O)C(=O)N(Cc2ccccc2)Cc2ncccc2Cl)c2[nH]ncc12 [Compound 120, N-(4-amino-2H-pyrazolo[4,3-c]pyridin-7-yl)-N′-benzyl-N′-[(3-chloro-2-pyridyl)methyl]oxamide] | 5 to 50 | < 100 | < 5 | < 75 | B (IC50 ratio greater than or equal to 15 fold but lower than 30 fold) |  |  |  |  |
| Cc1cc(F)ccc1CN(CC(C)C)C(=O)C(=O)Nc1cnc(N)c2cn[nH]c12 [Compound 71, N-(4-amino-1H-pyrazolo[4,3-c]pyridin-7-yl)-N′-[(4-fluoro-2-methyl-phenyl)methyl]-N′-isobutyl-oxamide] | > 50 | < 100 | < 5 | < 75 | A (IC50 ratio greater than or equal to 30 fold) |  |  |  |  |
| CC(C)CN(C(=O)C(=O)Nc1cnc(N)c2cn[nH]c12)C(C)c1ccccc1 (centres unmarked) [Compound 172, N-(4-amino-1H-pyrazolo[4,3-c]pyridin-7-yl)-N′-isobutyl-N′-(1-phenylethyl)oxamide] | > 50 | < 100 | < 5 | < 75 | B (IC50 ratio greater than or equal to 15 fold but lower than 30 fold) |  |  |  |  |
